Laboratory results from patent US20110200549A1, “Organic Compounds Suitable For Modulating Fragrance Compositions” (priority 2008, published 2011).

Columns and labels:
CYP2A13 = molecular target: T1, CYP2A13 (Homo sapiens, UniProt Q16696); test: CYP2A13 inhibition, coumarin 7-hydroxylation (Umbelliferone fluorescence) in microsomes; assay type: biochemical; settings: recombinant CYP2A13 + P450 reductase microsomes, coumarin 0.006 mM, 60 min at 37° C.; read-out: CYP2A13 inhibitor activity IC50
T1 construct: made in house; host or cells: Sf9 insect cells, recombinant baculovirus
T1 sequence (Q16696 1-494): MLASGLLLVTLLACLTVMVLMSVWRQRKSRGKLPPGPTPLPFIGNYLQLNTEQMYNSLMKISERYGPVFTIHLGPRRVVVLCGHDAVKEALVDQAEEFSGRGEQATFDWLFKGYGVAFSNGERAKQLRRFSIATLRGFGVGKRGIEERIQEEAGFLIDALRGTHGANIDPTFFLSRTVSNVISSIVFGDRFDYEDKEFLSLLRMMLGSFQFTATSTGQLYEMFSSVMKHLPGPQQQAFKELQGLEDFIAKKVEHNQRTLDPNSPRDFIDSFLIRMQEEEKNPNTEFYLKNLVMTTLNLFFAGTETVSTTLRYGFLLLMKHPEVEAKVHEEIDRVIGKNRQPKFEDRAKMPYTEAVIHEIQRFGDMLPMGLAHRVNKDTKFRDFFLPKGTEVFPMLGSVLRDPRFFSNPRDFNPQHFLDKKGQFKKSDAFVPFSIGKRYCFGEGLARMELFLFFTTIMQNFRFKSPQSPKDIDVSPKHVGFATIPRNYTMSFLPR
Experimental: Compounds that inhibit the activity of CYP2A13 are identified by using a standard reaction established for the enzyme. A known substrate is coumarin, and the product of the enzymatic reaction is 7-hydroxy-coumarin (Umbelliferone) which is strongly fluorescent. When a compound is added to the standard reaction and the formation of Umbelliferone is decreased, the compound is identified as an inhibitor, which can also be a competitive substrate of the enzyme. The compound is used at various concentrations and the concentration-dependent decrease in Umbelliferone formation allows to determine the concentration where the activity of the enzyme is reduced to the 50% level (IC50 value).
A test compound (details see Table 1) was incubated with CYP2A13 in the presence of a cytochrome P450 reductase. CYP2A13 and P450 reductase were employed in form of microsomes. CYP2A13 was produced in Sf9 cells using a recombinant baculovirus, under conditions known to the person skilled in the art, for example, as described in WO 2006/007751. P450 reductase is commercially available (BD Biosciences Gentest, USA). Preferably, the two enzymes are coexpressed in the same insect cells and microsomes prepared which contain both enzymes. The art of coexpression of two enzymes is known, and the coexpression CYP2A13 and P450 reductase is described in WO 2006/007751. […] An MOI of 4 for recombinant CYP2A13 baculovirus combined with an MOI of 3.5 for recombinant P450 reductase baculovirus routinely produced microsomes with considerable activity.
Microsomes were used which contained 7 pmoles CYP2A13. Tris buffer (1 M, pH 7.6) and water were added to give a buffer concentration of 0.1M. The test compound was prepared as a 50 mM stock solution in acetonitrile. The concentration of the standard substrate coumarin was 0.006 mM. Several samples of the test compound were prepared at various concentrations to give different final concentrations in the reaction: 0, 0.005, 0.01, 0.02, 0.05, 0.1 and 0.2 mM. The mixture was incubated for 10 min at 37° C. prior to the initiation of the enzymatic reaction by the addition of 0.005 ml of a solution of 50 mM NADPH in water. The final total volume was 0.2 ml, which is suitable for microtiter plate measurements. The samples were incubated for 60 min at 37° C. After 60 min, the enzymatic reaction was stopped by the addition of 0.02 ml cold 50% trichloroacetic acid (TCA) and incubated at 4° C. for 15 min. 0.005 ml of a solution of 50 mM NADPH in water was added to the control reaction which corresponds to the reaction without test compound and without NADPH, and as a consequence, no Umbelliferone was formed. Denatured proteins and other insoluble parts were separated by centrifugation (10 min, 560×g, room-temperature).
The samples were analysed spectrofluorometrically which allows to detect the formation of Umbelliferone as the enzymatic product of coumarin at an excitation wavelength of 340 nm and an emission wavelength of 480 nm.

CYP2B6 = molecular target: T2, CYP2B6 (Homo sapiens, UniProt P20813); test: CYP2B6 inhibition, 7-ethoxy-4-trifluoromethyl-coumarin fluorescence assay in microsomes; assay type: biochemical; settings: CYP2B6 + P450 reductase microsomes, 7-ethoxy-4-trifluoromethyl-coumarin 6 μM, 40 min at 37° C.; read-out: CYP2B6 inhibitor activity IC50
T2 construct: made in house; host or cells: Sf9 insect cells, recombinant baculoviruses, coexpressed with P450 reductase
T2 sequence (P20813 1-491): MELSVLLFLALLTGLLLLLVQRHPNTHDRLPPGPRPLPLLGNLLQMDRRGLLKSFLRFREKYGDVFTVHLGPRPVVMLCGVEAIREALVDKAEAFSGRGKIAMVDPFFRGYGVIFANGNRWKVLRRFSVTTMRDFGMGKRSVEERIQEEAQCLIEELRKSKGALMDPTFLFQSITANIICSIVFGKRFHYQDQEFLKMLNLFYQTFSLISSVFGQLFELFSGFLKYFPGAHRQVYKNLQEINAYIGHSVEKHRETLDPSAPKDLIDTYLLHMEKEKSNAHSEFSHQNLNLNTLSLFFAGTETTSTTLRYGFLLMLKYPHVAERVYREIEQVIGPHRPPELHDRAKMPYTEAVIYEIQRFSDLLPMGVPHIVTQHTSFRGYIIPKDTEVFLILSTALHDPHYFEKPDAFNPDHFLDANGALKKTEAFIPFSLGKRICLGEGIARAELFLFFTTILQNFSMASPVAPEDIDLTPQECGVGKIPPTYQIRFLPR
Experimental: Test compounds that inhibit the activity of CYP2B6 are identified by using the same principle as described in Example 42, first paragraph.
A test compound (details see Table 2) was incubated with CYP2B6 in the presence of a cytochrome P450 reductase. CYP2B6 and P450 reductase are produced using recombinant baculoviruses and co-expressing the two proteins in Sf9 insect cells as described in Example 42. Alternatively, microsomes containing CYP2B6 and the reductase are commercially available (BD Biosciences Gentest, USA). Microsomes were used which contained 1.5 pmoles CYP2B6. Potassium phosphate buffer final concentration was 100 mM, (1M stock, pH 7.4). The test compound was prepared as a 50 mM stock solution in acetonitrile. The concentration of the standard substrate 7-ethoxy-4-trifluoromethyl-coumarin was 6 μM. Several samples of the test compound were prepared at various concentrations to give different final concentrations in the reaction: 0, 0.005, 0.01, 0.02, 0.05, 0.1 and 0.2 mM. […] The final total volume was 0.2 ml, which is suitable for microtiter plate measurements. The samples were incubated for 40 min at 37° C. After 40 min, the enzymatic reaction was stopped by the addition of […] 0.5M Tris-base/acetonitrile (18:72). 0.005 ml of a solution of 50 mM NADPH in water was added to the control reaction which corresponds to the reaction with test compound and enzyme but without NADPH, and as a consequence, no 4-trifluoromethyl-umbelliferone was formed. Denatured proteins and other insoluble parts were separated by centrifugation (5 min, 1800 rpm, at 10° C.).
The samples were analysed spectrofluorometrically which allows to detect the formation of 4-trifluoromethyl-umbelliferone as the enzymatic product at an excitation wavelength of 410 nm and an emission wavelength of 510 nm.

[1] = Sensory panel study with olfactometer (Virtual Aroma Synthesizer): modulation of a fragrance accord by the inhibitor; parameters: species or system human; settings: 10-ingredient fragrance accord with vs without inhibitor, random order, panelists
Experimental: For each panelist, the inhibitor was tested by itself and confirmed that it was rated as being odorless at the given concentration.
Sensory studies are performed using an olfactometer, such as the Virtual Aroma Synthesizer (VAS) which is described in Chimia (2001) 55:401-405. The instrument allows to combine saturated headspace of different samples from different containers at various dilutions in order to determine the effect on the odor of the mixture produced in headspace. For the particular example, in one container the fragrance accord (1 gram) was adsorbed on beads (4 grams) and in another container the inhibitor N-(cyclopropylmethyl)-N-pentylacetamide was adsorbed on beads (4 grams).
Panelists were selected having different levels of experience and expertise in smelling, rating, describing and evaluating odorants, accords and perfumes. Panelists smelled the accord with or without the inhibitor at random order, not knowing which one was presented. Before and after the session, it was confirmed that the inhibitor alone was odorless.

SMILES	IC50 (CYP2A13) [µM]	IC50 (CYP2B6) [µM]	Effect on the odor of the fragrance accord attributed to the presence of the inhibitor [1]
CCCCCN(Cc1ccccc1)C(C)=O [Ex. 1, N-benzyl-N-pentylacetamide]	0.3	72	–
CCCCCN(C(C)=O)c1ccccc1 [Ex. 2, N-pentyl-N-phenylacetamide]	0.5	46	–
CCCCCN(CCc1ccccc1)C(C)=O [Ex. 3, N-pentyl-N-phenethylacetamide]	2	93	–
CCCCCN(Cc1cccnc1)C(C)=O [Ex. 4, N-pentyl-N-(pyridin-3-ylmethyl)acetamide]	15	–	–
CCCCCN(Cc1cccnc1)C(=O)OC [Ex. 5, methyl pentyl(pyridin-3-ylmethyl)carbamate]	22	–	–
CCCCN(Cc1ccccc1)C(C)=O [Ex. 6, N-benzyl-N-butylacetamide]	8	–	–
CCCCCN(Cc1ccncc1)C(C)=O [Ex. 8, N-pentyl-N-(pyridin-4-ylmethyl)acetamide]	11	–	–
CCCCCN(Cc1ccncc1)C(=O)OC [Ex. 9, methyl pentyl(pyridin-4-ylmethyl)carbamate]	17	–	–
CCCCCN(CC1CC1)C(C)=O [Ex. 10, N-(cyclopropylmethyl)-N-pentylacetamide]	0.5	87	intensifying or boosting the fruitiness of the accord
CCCCCN(CC1CC1)C(=O)OC [Ex. 11, methyl cyclopropylmethyl(pentyl)carbamate]	3	28	–
CCCCCN(CCc1ccccn1)C(C)=O [Ex. 16, N-pentyl-N-(2-(pyridin-2-yl)ethyl)acetamide]	24	–	–
CCCCCN(CCc1ccccn1)C(=O)OC [Ex. 17, methyl pentyl(2-(pyridin-2-yl)ethyl)carbamate]	44	–	–
CCCCCN(CCc1cccnc1)C(C)=O [Ex. 18, N-pentyl-N-(2-(pyridin-3-yl)ethyl)acetamide]	25	–	–
CCCCCN(CCc1cccnc1)C(=O)OC [Ex. 19, methyl pentyl(2-(pyridin-3-yl)ethyl)carbamate]	41	–	–
CCCCCN(CCc1ccncc1)C(C)=O [Ex. 20, N-pentyl-N-(2-(pyridin-4-yl)ethyl)acetamide]	13	19	–
CCCCCN(CCc1ccncc1)C(=O)OC [Ex. 21, methyl pentyl(2-(pyridin-4-yl)ethyl)carbamate]	2	–	–
CCCCCN(Cc1ccccn1)C(C)=O [Ex. 22, N-pentyl-N-(pyridin-2-ylmethyl)acetamide]	10	–	–
CCCCCN(Cc1ccccn1)C(=O)OC [Ex. 23, methyl pentyl(pyridin-2-ylmethyl)carbamate]	20	–	–
CCCCCN(CCc1c[nH]cn1)C(C)=O [Ex. 27, N-(2-(1H-imidazol-4-yl)ethyl)-N-pentylacetamide]	34	2.5	–
CCCCCN(CCc1c[nH]cn1)C(=O)OC [Ex. 28, methyl 2-(1H-imidazol-4-yl)ethyl(pentyl)carbamate]	47	–	–
CCCCCN(Cc1ccccc1)C(=O)OC [Ex. 29, methyl benzyl(pentyl)carbamate]	1.6	20	–
CCCCCN(C(C)=O)C(=O)C1CC1 [Ex. 33, N-acetyl-N-pentylcyclopropanecarboxamide]	0.7	17	–
CCCCCN(C(C)=O)C(=O)OC(C)(C)C [Ex. 34, tert-butyl acetyl(pentyl)carbamate]	1.5	11	–
CC(=O)N(CCc1ccccc1)Cc1ccccc1 [Ex. 35, N-benzyl-N-phenethylacetamide]	52	–	–
CCCCCN(C=O)CC1CC1 [Ex. 36, N-(cyclopropylmethyl)-N-pentylformamide]	1.3	49	–
CCCCC/C(=C\c1ccccc1)C(=O)NC [Ex. 37, (E)-2-benzylidene-N-methylheptanamide]	0.5	–	–
CCCCC/C(=C\C1CC1)C(=O)NC [Ex. 38, (E)-2-(cyclopropylmethylene)-N-methylheptanamide]	0.8	–	–
CCCCC/C(=C\c1ccccc1)C(=O)N(C)C [Ex. 39, (E)-2-benzylidene-N,N-dimethylheptanamide]	3	–	–
CCCCC/C(=C\C1CC1)C(=O)N(C)C [Ex. 40, (E)-2-(cyclopropylmethylene)-N,N-dimethylheptanamide]	9	–	–
CCCCC/C(=C\C1CC1)C(N)=O [Ex. 41, (E)-2-(cyclopropylmethylene)heptanamide]	1.1	–	–
